Measurements published in PMC4182091, “A Common Minimal Motif for the Ligands of HLA-B*27 Class I Molecules” (PLoS ONE, 2014).
Read-outs that look alike come from different tables or passages of the source. Ends that are not written are not given here.

Experiments:
Assay type in all cases: cell-based
HLA-B*2706 = biological target: T1, HLA-B*2706 (Homo sapiens, UniProt P01889, A235G/D201E/E204Q/G107R/H137Y/K202T/N104T/N87E/Q56L/Q94K/R106L/R155S/R180L/S121N/S48T/Y33H/Y91C); test: HLA/peptide complex stability assay, RMA-S cells transfected with HLA-B*2706; details: for fluorescence index, B*2706: peptide 200 µM
T1 construct: expressed in transfected cells; host or cells: RMA-S (TAP-deficient murine cell line)

HLA-B*2701 = biological target: T2, HLA-B*2701 (Homo sapiens, UniProt P01889, D138H/D201E/D98Y/E176V/E204Q/G107R/H137Y/K202T/L105A/N104T/N87E/Q56L/Q94K/R106L/R155S/R180L/S101N/S121N/S48T/Y140D/Y33H/Y91C); test: HLA/peptide complex stability assay, RMA-S cells transfected with HLA-B*2701; details: for fluorescence index, B*2701: peptide 200 µM
T2 construct: expressed in transfected cells; host or cells: RMA-S (TAP-deficient murine cell line)

HLA-B*2702 = HLA-B*2702 (Homo sapiens, UniProt P01889, D138H/D201E/E176V/E204Q/G107R/H137Y/K202T/L105A/N104I/N87E/Q56L/Q94K/R106L/R155S/R180L/S101N/S121N/S48T/Y140D/Y33H/Y91C); test: HLA/peptide complex stability assay, RMA-S cells transfected with HLA-B*2702; details: for fluorescence index, B*2702: peptide 200 µM
HLA-B*2704 = HLA-B*2704 (Homo sapiens, UniProt P01889, A235G/D138H/D201E/E204Q/G107R/H137Y/K202T/N104T/N87E/Q56L/Q94K/R106L/R155S/R180L/S121N/S48T/Y140D/Y33H/Y91C); test: HLA/peptide complex stability assay, RMA-S cells transfected with HLA-B*2704; details: for fluorescence index, B*2704: peptide 200 µM
HLA-B*2709 = biological target: T3, HLA-B*2709 (Homo sapiens, UniProt P01889, D138H/D201E/E176V/E204Q/G107R/H137Y/K202T/N104T/N87E/Q56L/Q94K/R106L/R155S/R180L/S101D/S121N/S48T/Y140H/Y33H/Y91C); test: HLA/peptide complex stability assay, RMA-S cells transfected with HLA-B*2709; details: for fluorescence index, B*2709: peptide 200 µM
T3 construct: expressed in transfected cells; host or cells: RMA-S (TAP-deficient murine cell line)

HLA-B*2703 = biological target: T4, HLA-B*2703 (Homo sapiens, UniProt P01889, D138H/D201E/E176V/E204Q/G107R/H137Y/K202T/N104T/N87E/Q56L/Q94K/R106L/R155S/R180L/S101D/S121N/S48T/Y140D/Y33H/Y83H/Y91C); test: HLA/peptide complex stability assay, RMA-S cells transfected with HLA-B*2703; details: for fluorescence index, B*2703: peptide 200 µM
T4 construct: expressed in transfected cells; host or cells: RMA-S (TAP-deficient murine cell line)

HLA-B*2705 = biological target: T5, HLA-B*2705 (Homo sapiens, UniProt P01889, D138H/D201E/E176V/E204Q/G107R/H137Y/K202T/N104T/N87E/Q56L/Q94K/R106L/R155S/R180L/S101D/S121N/S48T/Y140D/Y33H/Y91C); test: HLA/peptide complex stability assay, RMA-S cells transfected with HLA-B*2705; details: for fluorescence index, B*2705: peptide 200 µM
T5 construct: expressed in transfected cells; host or cells: RMA-S (TAP-deficient murine cell line)

[1] = relative affinity (EC50 class), B*2701
[2] = relative affinity (EC50 class), B*2702
[3] = relative affinity (EC50 class), B*2704
[4] = relative affinity (EC50 class), B*2703
[5] = relative affinity (EC50 class), B*2705
[6] = […], mean ± S.D. of three to five independent experiments, SD
[7] = Table 1, transfected RMA-S cells, 2 h 26°C then 2 h 37°C, ME1 mAb, flow cytometry, ratio to control without peptide, mean ± S.D. of three to five independent experiments, SD
[8] = Table 4, monosubstituted Ala analogs, transfected RMA-S cells, flow cytometry, mean ± S.D. of three to five independent experiments, SD

LRNEESEKMAK [P 198-208]
EC50 (HLA-B*2706; EC50, B*2706): > 200 µM | EC50 (HLA-B*2706; relative affinity (EC50 class), B*2706): > 200 µM | EC50 (HLA-B*2701; read-out: EC50, B*2701): > 200 µM | EC50 (HLA-B*2701; [1]): > 200 µM | EC50 (HLA-B*2702; read-out: EC50, B*2702): > 200 µM | EC50 (HLA-B*2702; [2]): > 200 µM | EC50 (HLA-B*2704; read-out: EC50, B*2704): > 200 µM | EC50 (HLA-B*2704; [3]): > 200 µM | EC50 (HLA-B*2709; EC50, B*2709, SD): 86 ± 12 µM | EC50 (HLA-B*2709; relative affinity (EC50 class), B*2709): 61 to 200 µM | EC50 (HLA-B*2703; EC50, B*2703): > 200 µM | EC50 (HLA-B*2703; [4]): > 200 µM | relative MHC class I affinity according to the EC50 value, in words (high, medium, low) (HLA-B*2705): low affinity | EC50 (HLA-B*2705; EC50, B*2705, SD): 98 ± 35 µM | EC50 (HLA-B*2705; [5]): 61 to 200 µM

RRAAAAAAAI [RRA7I]
EC50 (HLA-B*2706; SD): 2 ± 1 µM | EC50 (HLA-B*2701; SD): 7 ± 2 µM | EC50 (HLA-B*2702; EC50, B*2702, SD): 28 ± 16 µM | EC50 (HLA-B*2702; read-out: relative affinity (EC50 class), B*2702): 20 to 60 µM | EC50 (HLA-B*2704; SD): 7 ± 2 µM | EC50 (HLA-B*2709; EC50, B*2709, SD): 2 ± 1 µM | EC50 (HLA-B*2703; EC50, B*2703, SD): 7 ± 5 µM | EC50 (HLA-B*2705; SD): 4 ± 3 µM

RRANNVLKNEA [A11-NP 184-194, monosubstituted Ala analog of HRSV NP 184-194, […]]
fluorescence index, B*2706 (HLA-B*2706; [6]): 2.7±0.2 | fluorescence index, B*2701 (HLA-B*2701; [6]): 1.1±0.1 | fluorescence index, B*2702 (HLA-B*2702; [6]): 1.7±0.1 | fluorescence index, B*2704 (HLA-B*2704; [6]): 2.0±0.2 | fluorescence index, B*2709 (HLA-B*2709; [6]): 1.8±0.1 | fluorescence index, B*2703 (HLA-B*2703; [6]): 1.7±0.2 | fluorescence index, B*2705 (HLA-B*2705; [6]): 2.1±0.1

RRANNVLKNEM [NP 184-194]
EC50 (HLA-B*2706; EC50, B*2706, SD): 2 ± 1 µM | EC50 (HLA-B*2701; EC50, B*2701, SD): 39 ± 9 µM | EC50 (HLA-B*2701; [1]): 20 to 60 µM | EC50 (HLA-B*2702; EC50, B*2702, SD): 43 ± 27 µM | EC50 (HLA-B*2702; [2]): 20 to 60 µM | EC50 (HLA-B*2704; EC50, B*2704, SD): 19 ± 10 µM | EC50 (HLA-B*2709; EC50, B*2709, SD): 7 ± 1 µM | EC50 (HLA-B*2703; EC50, B*2703, SD): 60 ± 29 µM | EC50 (HLA-B*2703; [4]): 20 to 60 µM | relative MHC class I affinity according to the EC50 value, in words (high, medium, low) (HLA-B*2705): high | EC50 (HLA-B*2705; EC50, B*2705, SD): 20 ± 8 µM

RRYPDAVYL [MV F 438-466, reference compound]
EC50 (HLA-B*2706; Table 2, peptide concentration at 50% of maximum fluorescence, range 0.01–200 µM, transfected RMA-S cells, flow cytometry, mean ± S.D. of three to five independent experiments, - = no statistical difference in fluorescence index to negative control, SD, read-out: EC50, B*2706): 2 ± 1 µM | EC50 (HLA-B*2701; Table 2, peptide concentration at 50% of maximum fluorescence, range 0.01–200 µM, transfected RMA-S cells, flow cytometry, mean ± S.D. of three to five independent experiments, - = no statistical difference in fluorescence index to negative control, SD, read-out: EC50, B*2701): 5 ± 2 µM | EC50 (HLA-B*2702; Table 2, peptide concentration at 50% of maximum fluorescence, range 0.01–200 µM, transfected RMA-S cells, flow cytometry, mean ± S.D. of three to five independent experiments, - = no statistical difference in fluorescence index to negative control, SD, read-out: EC50, B*2702): 11 ± 4 µM | EC50 (HLA-B*2704; Table 2, peptide concentration at 50% of maximum fluorescence, range 0.01–200 µM, transfected RMA-S cells, flow cytometry, mean ± S.D. of three to five independent experiments, - = no statistical difference in fluorescence index to negative control, SD, read-out: EC50, B*2704): 18 ± 4 µM | EC50 (HLA-B*2709; Table 2, peptide concentration at 50% of maximum fluorescence, range 0.01–200 µM, transfected RMA-S cells, flow cytometry, mean ± S.D. of three to five independent experiments, - = no statistical difference in fluorescence index to negative control, SD, read-out: EC50, B*2709): 4 ± 1 µM | EC50 (HLA-B*2703; Table 2, peptide concentration at 50% of maximum fluorescence, range 0.01–200 µM, transfected RMA-S cells, flow cytometry, mean ± S.D. of three to five independent experiments, - = no statistical difference in fluorescence index to negative control, SD, read-out: EC50, B*2703): 4 ± 3 µM | EC50 (HLA-B*2705; Table 2, peptide concentration at 50% of maximum fluorescence, range 0.01–200 µM, transfected RMA-S cells, flow cytometry, mean ± S.D. of three to five independent experiments, - = no statistical difference in fluorescence index to negative control, SD, read-out: EC50, B*2705): 3 ± 2 µM

SRSALLAQM [M 76-84]
EC50 (HLA-B*2706; EC50, B*2706, SD): 1 ± 1 µM | EC50 (HLA-B*2701; EC50, B*2701, SD): 15 ± 11 µM | EC50 (HLA-B*2702; EC50, B*2702): > 200 µM | EC50 (HLA-B*2702; [2]): > 200 µM | EC50 (HLA-B*2704; EC50, B*2704, SD): 15 ± 6 µM | EC50 (HLA-B*2709; EC50, B*2709, SD): 6 ± 2 µM | EC50 (HLA-B*2703; EC50, B*2703, SD): 6 ± 3 µM | relative MHC class I affinity according to the EC50 value, in words (high, medium, low) (HLA-B*2705): high | EC50 (HLA-B*2705; EC50, B*2705, SD): 5 ± 5 µM

VAFTSHEHF [CMV pp65, reference compound]
fluorescence index, B*2706 (HLA-B*2706; [7]): 1.0±0.1 | fluorescence index, B*2706 (HLA-B*2706; [8]): 1.0±0.1 | fluorescence index, B*2701 (HLA-B*2701; [7]): 1.0±0.1 | fluorescence index, B*2701 (HLA-B*2701; [8]): 1.0±0.1 | fluorescence index, B*2702 (HLA-B*2702; [7]): 1.0±0.1 | fluorescence index, B*2702 (HLA-B*2702; [8]): 1.0±0.1 | fluorescence index, B*2704 (HLA-B*2704; [7]): 1.0±0.1 | fluorescence index, B*2704 (HLA-B*2704; [8]): 1.0±0.1 | fluorescence index, B*2709 (HLA-B*2709; [7]): 1.1±0.1 | fluorescence index, B*2709 (HLA-B*2709; [8]): 1.1±0.1 | fluorescence index, B*2703 (HLA-B*2703; [7]): 1.0±0.1 | fluorescence index, B*2703 (HLA-B*2703; [8]): 1.0±0.1 | fluorescence index, B*2705 (HLA-B*2705; [7]): 1.0±0.1 | fluorescence index, B*2705 (HLA-B*2705; [8]): 1.0±0.1

VRNKDLNTL [M 169-177]
EC50 (HLA-B*2706; EC50, B*2706, SD): 3 ± 1 µM | EC50 (HLA-B*2701; EC50, B*2701): > 200 µM | EC50 (HLA-B*2701; [1]): > 200 µM | EC50 (HLA-B*2702; EC50, B*2702, SD): 94 ± 25 µM | EC50 (HLA-B*2702; [2]): 61 to 200 µM | EC50 (HLA-B*2704; EC50, B*2704, SD): 56 ± 16 µM | EC50 (HLA-B*2704; [3]): 20 to 60 µM | EC50 (HLA-B*2709; EC50, B*2709, SD): 19 ± 7 µM | EC50 (HLA-B*2703; EC50, B*2703): > 200 µM | EC50 (HLA-B*2703; [4]): > 200 µM | relative MHC class I affinity according to the EC50 value, in words (high, medium, low) (HLA-B*2705): low affinity | EC50 (HLA-B*2705; read-out: EC50, B*2705, SD): 82 ± 20 µM | EC50 (HLA-B*2705; [5]): 61 to 200 µM
